Experimental data from ChEMBL document CHEMBL3217424, “Total synthesis and anti-cholinesterase activity of marine-derived bis-indole alkaloid fascaplysin” (Medchemcomm, 2012).
The source made the active and inactive calls. The calls are words filed in the database; no cut-off is given here.

Tests used:
[1] = target: Acetylcholinesterase (Homo sapiens) (UniProt P22303); assay: Ratio of physostigmine IC50 to compound IC50 for acetylcholinesterase (unknown origin)
[2] = target: Acetylcholinesterase (Electrophorus electricus) (UniProt O42275); assay: Inhibition of Electrophorus electricus AChE using acetylthiocholine iodide as substrate at 10 uM after 30 mins by Ellman's method
Sequence of Acetylcholinesterase (Electrophorus electricus) (O42275 24-633 limits assumed): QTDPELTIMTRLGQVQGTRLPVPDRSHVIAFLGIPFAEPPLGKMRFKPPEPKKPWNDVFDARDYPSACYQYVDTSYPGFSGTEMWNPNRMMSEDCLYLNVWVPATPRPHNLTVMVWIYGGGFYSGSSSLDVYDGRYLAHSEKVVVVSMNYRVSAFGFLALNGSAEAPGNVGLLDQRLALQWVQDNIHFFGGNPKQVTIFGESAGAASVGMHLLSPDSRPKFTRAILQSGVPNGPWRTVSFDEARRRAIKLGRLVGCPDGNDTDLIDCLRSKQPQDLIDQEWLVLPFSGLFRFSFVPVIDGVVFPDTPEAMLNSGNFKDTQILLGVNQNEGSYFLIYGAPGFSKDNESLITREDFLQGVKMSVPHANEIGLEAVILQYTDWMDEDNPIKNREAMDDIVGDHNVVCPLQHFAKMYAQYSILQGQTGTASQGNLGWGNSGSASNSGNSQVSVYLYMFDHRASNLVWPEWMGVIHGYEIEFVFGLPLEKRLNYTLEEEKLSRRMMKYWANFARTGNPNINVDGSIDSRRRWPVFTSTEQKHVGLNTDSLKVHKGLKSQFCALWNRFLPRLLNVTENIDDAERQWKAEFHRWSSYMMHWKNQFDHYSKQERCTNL

[3] = target: Cyclin-dependent kinase 4/cyclin D2 (Homo sapiens, UniProt P11802+P30279); assay: Inhibition of CDK4/cyclin-D2 (unknown origin); type: protein-complex assay
Sequence of Cyclin-dependent kinase 4/cyclin D2 (P11802 whole entry): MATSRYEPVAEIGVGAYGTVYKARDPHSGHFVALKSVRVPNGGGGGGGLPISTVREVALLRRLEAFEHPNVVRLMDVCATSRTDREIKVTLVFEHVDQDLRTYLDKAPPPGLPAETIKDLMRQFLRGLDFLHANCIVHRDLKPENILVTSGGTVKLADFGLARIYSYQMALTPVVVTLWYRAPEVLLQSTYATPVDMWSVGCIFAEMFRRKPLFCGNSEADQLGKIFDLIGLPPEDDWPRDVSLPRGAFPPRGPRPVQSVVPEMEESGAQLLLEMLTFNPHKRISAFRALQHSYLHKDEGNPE
Sequence of Cyclin-dependent kinase 4/cyclin D2 (P30279 whole entry): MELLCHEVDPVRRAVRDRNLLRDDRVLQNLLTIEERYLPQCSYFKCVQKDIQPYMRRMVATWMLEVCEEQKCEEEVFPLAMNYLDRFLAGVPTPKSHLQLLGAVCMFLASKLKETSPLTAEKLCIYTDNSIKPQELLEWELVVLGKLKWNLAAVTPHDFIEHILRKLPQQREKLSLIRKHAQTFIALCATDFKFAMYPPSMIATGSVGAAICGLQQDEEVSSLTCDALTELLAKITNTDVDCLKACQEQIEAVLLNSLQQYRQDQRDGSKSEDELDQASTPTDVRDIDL

Acetylcholinesterase [4] = target: T1, Acetylcholinesterase (Electrophorus electricus, UniProt O42275); assay: Inhibition of Electrophorus electricus AChE using acetylthiocholine iodide as substrate after 30 mins by Ellman's method
T1 sequence (O42275 whole entry): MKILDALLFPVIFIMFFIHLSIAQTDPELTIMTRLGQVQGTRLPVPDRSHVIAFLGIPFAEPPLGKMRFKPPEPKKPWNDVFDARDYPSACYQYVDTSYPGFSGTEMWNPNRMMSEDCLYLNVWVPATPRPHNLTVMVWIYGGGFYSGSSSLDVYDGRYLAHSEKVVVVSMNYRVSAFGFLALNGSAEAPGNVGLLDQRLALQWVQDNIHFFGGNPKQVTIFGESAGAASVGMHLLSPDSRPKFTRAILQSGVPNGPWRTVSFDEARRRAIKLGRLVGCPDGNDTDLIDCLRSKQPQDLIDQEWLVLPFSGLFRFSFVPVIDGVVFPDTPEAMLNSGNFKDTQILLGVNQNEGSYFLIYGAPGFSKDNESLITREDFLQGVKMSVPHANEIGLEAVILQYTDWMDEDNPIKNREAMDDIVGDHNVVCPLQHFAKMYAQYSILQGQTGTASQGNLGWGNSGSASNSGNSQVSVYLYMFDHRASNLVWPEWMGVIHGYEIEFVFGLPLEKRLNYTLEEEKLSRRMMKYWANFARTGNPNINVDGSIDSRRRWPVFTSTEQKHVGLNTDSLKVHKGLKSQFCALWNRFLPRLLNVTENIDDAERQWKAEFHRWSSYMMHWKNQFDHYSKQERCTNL

CDK6/cyclin D2 = CDK6/cyclin D2 (Homo sapiens, UniProt P30279+Q00534); assay: Inhibition of CDK6/cyclin-D2 (unknown origin); type: protein-complex assay
Sequence of CDK6/cyclin D2 (Q00534 whole entry): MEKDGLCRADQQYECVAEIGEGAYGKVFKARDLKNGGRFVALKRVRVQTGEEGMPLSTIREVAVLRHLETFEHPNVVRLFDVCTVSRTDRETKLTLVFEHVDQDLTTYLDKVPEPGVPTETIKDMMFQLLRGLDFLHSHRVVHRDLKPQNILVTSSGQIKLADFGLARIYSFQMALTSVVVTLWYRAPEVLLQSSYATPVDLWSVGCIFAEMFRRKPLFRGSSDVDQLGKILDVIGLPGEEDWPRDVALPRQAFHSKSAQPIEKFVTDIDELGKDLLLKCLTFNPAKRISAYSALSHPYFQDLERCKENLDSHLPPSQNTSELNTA
Sequence of CDK6/cyclin D2 (P30279 whole entry): as the sequence (P30279 whole entry) above

Acetylcholinesterase [5] = target: T1, Acetylcholinesterase; assay: Non-competitive inhibition of Electrophorus electricus AChE using acetylthiocholine iodide as substrate by Lineweaver-Burk reciprocal plot analysis
Cholinesterase [6] = target: T2, Cholinesterase (Equus caballus, UniProt P81908); assay: Non-competitive inhibition of equine serum BuChE using S-butyrylthiocholine iodide as substrate by Lineweaver-Burk reciprocal plot analysis
T2 sequence (P81908 whole entry): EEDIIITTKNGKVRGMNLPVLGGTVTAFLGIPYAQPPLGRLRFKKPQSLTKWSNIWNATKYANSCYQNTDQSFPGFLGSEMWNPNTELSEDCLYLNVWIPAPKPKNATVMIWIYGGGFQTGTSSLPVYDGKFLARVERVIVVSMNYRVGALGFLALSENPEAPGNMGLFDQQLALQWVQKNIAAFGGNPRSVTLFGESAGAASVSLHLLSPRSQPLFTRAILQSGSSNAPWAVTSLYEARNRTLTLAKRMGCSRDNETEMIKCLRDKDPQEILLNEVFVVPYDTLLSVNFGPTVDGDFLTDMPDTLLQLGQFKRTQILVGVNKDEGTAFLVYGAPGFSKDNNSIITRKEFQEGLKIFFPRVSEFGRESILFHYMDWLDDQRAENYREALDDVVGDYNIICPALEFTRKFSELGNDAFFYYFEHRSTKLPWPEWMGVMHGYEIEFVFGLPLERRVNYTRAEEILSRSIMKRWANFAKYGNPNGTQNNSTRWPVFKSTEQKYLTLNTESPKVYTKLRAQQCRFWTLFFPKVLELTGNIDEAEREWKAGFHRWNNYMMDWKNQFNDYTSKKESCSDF

[7] = target: Cyclin-dependent kinase 2/cyclin E1 (Homo sapiens, UniProt P24941); assay: Inhibition of CDK2/cyclin-E (unknown origin); type: protein-complex assay
[8] = target: Cyclin-dependent kinase 1/cyclin B1 (Homo sapiens, UniProt P06493); assay: Inhibition of CDK1/cyclin-B (unknown origin); type: protein-complex assay
Sequence of Cyclin-dependent kinase 1/cyclin B1 (P06493 whole entry): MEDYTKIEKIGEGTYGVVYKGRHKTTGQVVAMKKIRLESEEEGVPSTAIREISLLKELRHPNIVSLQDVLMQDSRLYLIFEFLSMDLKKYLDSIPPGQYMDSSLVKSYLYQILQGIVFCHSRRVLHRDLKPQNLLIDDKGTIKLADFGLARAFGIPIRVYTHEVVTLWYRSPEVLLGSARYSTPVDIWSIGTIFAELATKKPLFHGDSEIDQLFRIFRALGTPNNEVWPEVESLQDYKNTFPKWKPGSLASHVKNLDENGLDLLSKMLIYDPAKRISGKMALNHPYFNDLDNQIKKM
Sequence of Cyclin-dependent kinase 1/cyclin B1 (P14635 whole entry, further chain): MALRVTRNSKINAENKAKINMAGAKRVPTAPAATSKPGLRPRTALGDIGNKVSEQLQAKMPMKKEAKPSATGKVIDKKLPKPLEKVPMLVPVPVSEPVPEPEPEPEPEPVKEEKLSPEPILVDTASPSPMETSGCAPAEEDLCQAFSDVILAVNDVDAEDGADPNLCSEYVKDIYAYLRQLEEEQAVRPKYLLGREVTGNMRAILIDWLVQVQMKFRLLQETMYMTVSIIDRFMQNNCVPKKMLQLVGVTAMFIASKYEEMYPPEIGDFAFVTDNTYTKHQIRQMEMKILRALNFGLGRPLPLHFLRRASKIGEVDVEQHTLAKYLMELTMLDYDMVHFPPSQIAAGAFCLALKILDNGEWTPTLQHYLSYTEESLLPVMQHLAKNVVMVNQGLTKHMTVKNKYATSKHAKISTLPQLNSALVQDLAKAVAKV

[9] = target: Cyclin-dependent kinase 5/CDK5 activator 1 (Homo sapiens, UniProt Q00535); assay: Inhibition of CDK5/p-35 (unknown origin); type: protein-complex assay
Cholinesterase [10] = target: T2, Cholinesterase; assay: Inhibition of equine serum BuChE using S-butyrylthiocholine iodide as substrate after 30 mins by Ellman's method
CDK4/Cyclin D3 = CDK4/Cyclin D3 (Homo sapiens, UniProt P11802); assay: Inhibition of CDK4/cyclin-D3 (unknown origin); type: protein-complex assay
Sequence of CDK4/Cyclin D3 (P11802 whole entry): as the sequence (P11802 whole entry) above
Sequence of CDK4/Cyclin D3 (P30281 whole entry, further chain): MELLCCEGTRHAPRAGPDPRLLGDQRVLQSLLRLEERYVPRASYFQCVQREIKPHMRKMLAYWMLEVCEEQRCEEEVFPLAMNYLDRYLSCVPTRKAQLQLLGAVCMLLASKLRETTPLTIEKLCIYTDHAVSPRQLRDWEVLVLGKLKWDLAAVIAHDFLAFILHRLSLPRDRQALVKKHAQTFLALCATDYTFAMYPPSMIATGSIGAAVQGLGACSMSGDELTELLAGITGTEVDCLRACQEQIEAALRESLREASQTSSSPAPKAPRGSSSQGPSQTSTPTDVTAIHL

Sequence of Acetylcholinesterase (Homo sapiens) (P22303 whole entry): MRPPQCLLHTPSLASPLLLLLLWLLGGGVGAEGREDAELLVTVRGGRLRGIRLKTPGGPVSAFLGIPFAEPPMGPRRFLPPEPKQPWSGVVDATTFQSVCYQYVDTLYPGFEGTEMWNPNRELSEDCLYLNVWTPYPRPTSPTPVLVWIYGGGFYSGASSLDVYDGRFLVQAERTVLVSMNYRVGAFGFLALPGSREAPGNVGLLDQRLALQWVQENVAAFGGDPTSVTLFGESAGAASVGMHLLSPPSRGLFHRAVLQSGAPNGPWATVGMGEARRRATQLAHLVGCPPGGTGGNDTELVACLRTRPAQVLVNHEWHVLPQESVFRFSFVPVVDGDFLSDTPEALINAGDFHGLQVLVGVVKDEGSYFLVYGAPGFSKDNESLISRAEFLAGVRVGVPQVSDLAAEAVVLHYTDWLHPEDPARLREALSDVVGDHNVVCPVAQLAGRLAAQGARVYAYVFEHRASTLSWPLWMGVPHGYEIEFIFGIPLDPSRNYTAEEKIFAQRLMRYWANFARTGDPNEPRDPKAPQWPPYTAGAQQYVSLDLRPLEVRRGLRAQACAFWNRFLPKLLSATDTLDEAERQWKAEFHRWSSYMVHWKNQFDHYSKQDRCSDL

Work on `COC(=O)C1=CO[C@@H](C)[C@H]2C[n+]3ccc4c([nH]c5ccccc54)c3C[C@H]12` yielded a Ratio IC50 [1] of 10.

With `O=C(c1ccccc1Cl)c1nccc2c1[nH]c1ccccc12` the inhibition [2] was “inactive”.

`O=C1c2ccccc2-[n+]2ccc3c([nH]c4ccccc43)c21` [FASCAPLYSIN] was tested, and the IC50 [3] was greater than 100 µM, the IC50 (Acetylcholinesterase [4]) was 1.49 µM and the IC50 (CDK6/cyclin D2) was greater than 50 µM. The inhibition [2] was 86%, the Ki (Acetylcholinesterase [5]) was 2.28 µM and the Ki (Cholinesterase [6]) was 48.5 µM. The IC50 [7] was greater than 50 µM, the IC50 [8] was greater than 100 µM and the IC50 [9] was 20 µM. For the same compound, the IC50 (Cholinesterase [10]) was 90.5 µM and the IC50 (CDK4/Cyclin D3) was greater than 100 µM.
